Key:
[1] = Clinical chemistry: plasma ALT and creatinine; conditions: mean ± SEM
From the text: Plasma samples were collected at 6, 13, 20 and 27 days after the gene transfer and when the mice were sacrificed. Alanine aminotransferase (ALT) and creatinine (Crea) were monitored using routine clinical chemistry assays at Kuopio University Hospital Central Laboratory. Enzyme-linked immunosorbent assays (Quantikine; R&D Systems, Minneapolis, Minn.) were used to detect the presence of human sVEGFRs in plasma samples.
Safety was judged by the assessment of the histological samples of liver, spleen, kidneys and lungs as well as by the analysis of plasma ALT and Crea levels.

[2] = system: intratumoral microvessels of SKOV-3m tumors; experiment: Microvessel and lymphatic vessel measurements in tumors (CD34, LYVE-1 immunostaining); assay type: in vivo, Balb/cA-nu female nude mice; conditions: result in words
Procedure: Photographs of histological sections were taken and processed using an Olympus AX70 microscope (Olympus Optical, Japan), and analySIS (Soft Imaging System, GmbH, Germany) and PhotoShop (Adobe) softwares. Microvessel density (MVD) and total microvascular area (%) of the tumors (TVA) were measured from CD34-immunostained sections using analySIS software at 100× magnification in a blinded manner (FIG. 3b). Six to ten different fields which represented maximum microvessel density areas were selected from each tumor. Necrotic areas were avoided. In addition, the total number of LYVE-1 positive lymphatic vessels per section was counted. Means±SEM of the measurements are reported.

| Compound | ALT ([1]; Day 6 after treatment) [U/l] | Crea ([1]; Day 6 after treatment) [um/l] | ALT ([1]; Day 13 after treatment) [U/l] | Crea ([1]; Day 13 after treatment) [um/l] | effect on angiogenesis by microvessel measurements [2] |
| --- | --- | --- | --- | --- | --- |
| N.N.O=C([O-])C1(C(=O)[O-])CCC1.[Pt+2] [Carboplatin] | 10.0 ± 1 | 14.4 ± 3 | 399 ± 209 | 4.9 ± 2 | – |
| Bevacizumab | 12.9 ± 3 | 7.4 ± 1 | 56.3 ± 22 | 12.4 ± 4 | did not have any effect |

Source: patent US20140057851A1, “Anti-Angiogenic Gene Therapy With Soluble VEGF Receptors -1, -2 and -3 Together With Paclitaxel Prolongs Survival Of Mice With Human Ovarian Carcinoma” (WKD Holding Oy, priority 2012, published 2014)
